Assays:
in vitro [1] = details: human, liver microsomes
in vitro [2] = details: human, liver microsomes; remark: listed apart in the source

Compound | remaining at 1 h, 2 µM (in vitro [1]) [%] | remaining at 0.5 h, 2 µM (in vitro [2]) [%]
Cc1nc2n(c(=O)c1CCN1CCC(c3noc4cc(F)ccc34)CC1)CCCC2O (centres undefined) [PALIPERIDONE] | 100 | 100
Cc1nc2n(c(=O)c1CCN1CCC(c3noc4cc(F)ccc34)CC1)CCCC2 [RISPERIDONE] | 75 | 100

Reference: ChEMBL document CHEMBL4043141, “Synthesis and biological investigation of tetrahydropyridopyrimidinone derivatives as potential multireceptor atypical antipsychotics” (Bioorg Med Chem, 2017)
